system: COV318; assay: drug sensitivity score (DSS) from 5-point dose-response viability curve (DSS (area-under-curve based score)); higher = more sensitive (stronger growth inhibition or killing); extreme values may be limits of the assay; conditions: exposure time: 72 h; concentration range: 5 concentrations over 10,000-fold range
Summary of the method: (§1)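 Drug sensitivity scores were calculated in Breeze software for each cell line and drug pair; higher scores indicate more sensitivity. A score of zero indicates no response. The underlying assay used 384-well plates: drugs were placed by an Echo 550 acoustic dispenser at five concentrations spanning a 10,000-fold range, 1,500 ovarian cancer or normal ovarian cells were added per well, and cells were kept 3 days at 37°C, 5% CO2. Viability was then measured with CellTiter-Glo luminescence on a PHERAstar FS.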

Structure (SMILES)	drug sensitivity score
CC(C)(C)c1cc(NC(=O)Nc2ccc(Oc3ccnc4[nH]c(=O)cnc34)cc2F)n(-c2ccccc2)n1	0
CCn1c(-c2nonc2N)nc2c(C#CC(C)(C)O)ncc(OC[C@H]3CCCNC3)c21	0
CCn1cc(-c2ccnc3[nH]c(-c4cccc(CN(C)C)c4)cc23)c(-c2ccc(NC(=O)N(C)C)cc2)n1	0.2
CN1CCN(C2CCC(n3cc(-c4ccc(Oc5ccccc5)cc4)c4c(N)ncnc43)CC2)CC1 (stereo not drawn)	6.9
CNC(=O)c1ccccc1Nc1nc(Nc2ccc3c(c2OC)CCC[C@H](N2CCN(CCO)CC2)C3)ncc1Cl	5.2
CNc1nc(-c2ccc3c(N)n[nH]c3c2)cc(N2C[C@@H](C(=O)NC3CCCCC3)CC[C@H]2C)n1	0.1
CONC(=O)c1ccccc1Nc1cc(Nc2cc(C)nn2C(C)C)ncc1Cl	0
COc1cc2ncnc(Oc3cccc(NC(=O)Nc4cc(C(C)(C)C(F)(F)F)on4)c3)c2cc1OC	0
COc1ccc2[nH]cc(/C=C3\C(=O)Nc4ccc(NC(=O)CCN5CCCCC5)cc43)c2c1	5.4
C[C@@H](Oc1cc(-n2cnc3ccc(CN4CCN(C)CC4)cc32)sc1C(N)=O)c1ccccc1C(F)(F)F	6.8
O=C(NC[C@H](O)CN1CCc2ccccc2C1)c1cc(NC2COC2)ncn1	0.2
O=C1Cc2cc(C(=O)NC3C[C@H]4CC[C@@H](C3)N4S(=O)(=O)CC3CCN(CCCC(F)(F)F)CC3)c(Cl)cc2N1 (stereo partly drawn)	0
CCN(CC)CCCC(C)Nc1ccnc2cc(Cl)ccc12 (stereo not drawn) [Chloroquine]	4.9
Nc1ccn([C@@H]2O[C@H](CO)[C@@H](O)[C@@H]2O)c(=O)n1 [Cytarabine]	1
Cc1ccc(NC(=O)c2ccc(CN3CCN(C)CC3)cc2)cc1Nc1nccc(-c2cccnc2)n1 [Imatinib]	0
CC[C@H](CO)Nc1nc(NCc2ccccc2)c2ncn(C(C)C)c2n1 [Seliciclib]	1.1

system: JHOS2; assay: as above; conditions: exposure time: 72 h; concentration range: 5 concentrations over 10,000-fold range
Summary of the method: as §1

Structure (SMILES)	drug sensitivity score
CC(C)(C)c1cc(NC(=O)Nc2ccc(Oc3ccnc4[nH]c(=O)cnc34)cc2F)n(-c2ccccc2)n1	0.5
CCn1c(-c2nonc2N)nc2c(C#CC(C)(C)O)ncc(OC[C@H]3CCCNC3)c21	0
CCn1cc(-c2ccnc3[nH]c(-c4cccc(CN(C)C)c4)cc23)c(-c2ccc(NC(=O)N(C)C)cc2)n1	0
CN1CCN(C2CCC(n3cc(-c4ccc(Oc5ccccc5)cc4)c4c(N)ncnc43)CC2)CC1 (stereo not drawn)	7.1
CNC(=O)c1ccccc1Nc1nc(Nc2ccc3c(c2OC)CCC[C@H](N2CCN(CCO)CC2)C3)ncc1Cl	7.6
CNc1nc(-c2ccc3c(N)n[nH]c3c2)cc(N2C[C@@H](C(=O)NC3CCCCC3)CC[C@H]2C)n1	0.7
CONC(=O)c1ccccc1Nc1cc(Nc2cc(C)nn2C(C)C)ncc1Cl	0.1
COc1cc2ncnc(Oc3cccc(NC(=O)Nc4cc(C(C)(C)C(F)(F)F)on4)c3)c2cc1OC	1.5
COc1ccc2[nH]cc(/C=C3\C(=O)Nc4ccc(NC(=O)CCN5CCCCC5)cc43)c2c1	5
C[C@@H](Oc1cc(-n2cnc3ccc(CN4CCN(C)CC4)cc32)sc1C(N)=O)c1ccccc1C(F)(F)F	15.3
O=C(NC[C@H](O)CN1CCc2ccccc2C1)c1cc(NC2COC2)ncn1	0.7
O=C1Cc2cc(C(=O)NC3C[C@H]4CC[C@@H](C3)N4S(=O)(=O)CC3CCN(CCCC(F)(F)F)CC3)c(Cl)cc2N1 (stereo partly drawn)	0
Nc1ccn([C@@H]2O[C@H](CO)[C@@H](O)[C@@H]2O)c(=O)n1 [Cytarabine]	8.6
Cc1ccc(NC(=O)c2ccc(CN3CCN(C)CC3)cc2)cc1Nc1nccc(-c2cccnc2)n1 [Imatinib]	0
CC[C@H](CO)Nc1nc(NCc2ccccc2)c2ncn(C(C)C)c2n1 [Seliciclib]	1.2

system: OVCAR4; assay: as above; conditions: exposure time: 72 h; concentration range: 5 concentrations over 10,000-fold range
Summary of the method: as §1

Structure (SMILES)	drug sensitivity score
CC(C)(C)c1cc(NC(=O)Nc2ccc(Oc3ccnc4[nH]c(=O)cnc34)cc2F)n(-c2ccccc2)n1	2.8
CCn1c(-c2nonc2N)nc2c(C#CC(C)(C)O)ncc(OC[C@H]3CCCNC3)c21	0
CCn1cc(-c2ccnc3[nH]c(-c4cccc(CN(C)C)c4)cc23)c(-c2ccc(NC(=O)N(C)C)cc2)n1	2.9
CN1CCN(C2CCC(n3cc(-c4ccc(Oc5ccccc5)cc4)c4c(N)ncnc43)CC2)CC1 (stereo not drawn)	7.6
CNC(=O)c1ccccc1Nc1nc(Nc2ccc3c(c2OC)CCC[C@H](N2CCN(CCO)CC2)C3)ncc1Cl	5.2
CNc1nc(-c2ccc3c(N)n[nH]c3c2)cc(N2C[C@@H](C(=O)NC3CCCCC3)CC[C@H]2C)n1	0
CONC(=O)c1ccccc1Nc1cc(Nc2cc(C)nn2C(C)C)ncc1Cl	0.1
COc1cc2ncnc(Oc3cccc(NC(=O)Nc4cc(C(C)(C)C(F)(F)F)on4)c3)c2cc1OC	0
COc1ccc2[nH]cc(/C=C3\C(=O)Nc4ccc(NC(=O)CCN5CCCCC5)cc43)c2c1	4.9
C[C@@H](Oc1cc(-n2cnc3ccc(CN4CCN(C)CC4)cc32)sc1C(N)=O)c1ccccc1C(F)(F)F	3.6
O=C(NC[C@H](O)CN1CCc2ccccc2C1)c1cc(NC2COC2)ncn1	2
O=C1Cc2cc(C(=O)NC3C[C@H]4CC[C@@H](C3)N4S(=O)(=O)CC3CCN(CCCC(F)(F)F)CC3)c(Cl)cc2N1 (stereo partly drawn)	0
CCN(CC)CCCC(C)Nc1ccnc2cc(Cl)ccc12 (stereo not drawn) [Chloroquine]	6.2
Nc1ccn([C@@H]2O[C@H](CO)[C@@H](O)[C@@H]2O)c(=O)n1 [Cytarabine]	0
Cc1ccc(NC(=O)c2ccc(CN3CCN(C)CC3)cc2)cc1Nc1nccc(-c2cccnc2)n1 [Imatinib]	0
CC[C@H](CO)Nc1nc(NCc2ccccc2)c2ncn(C(C)C)c2n1 [Seliciclib]	0

system: HOSE1C; assay: as above; conditions: exposure time: 72 h; concentration range: 5 concentrations over 10,000-fold range
Summary of the method: as §1

Structure (SMILES)	drug sensitivity score
CC(C)(C)c1cc(NC(=O)Nc2ccc(Oc3ccnc4[nH]c(=O)cnc34)cc2F)n(-c2ccccc2)n1	16.2
CCn1c(-c2nonc2N)nc2c(C#CC(C)(C)O)ncc(OC[C@H]3CCCNC3)c21	1.4
CCn1cc(-c2ccnc3[nH]c(-c4cccc(CN(C)C)c4)cc23)c(-c2ccc(NC(=O)N(C)C)cc2)n1	1.3
CN1CCN(C2CCC(n3cc(-c4ccc(Oc5ccccc5)cc4)c4c(N)ncnc43)CC2)CC1 (stereo not drawn)	7.8
CNC(=O)c1ccccc1Nc1nc(Nc2ccc3c(c2OC)CCC[C@H](N2CCN(CCO)CC2)C3)ncc1Cl	4.8
CNc1nc(-c2ccc3c(N)n[nH]c3c2)cc(N2C[C@@H](C(=O)NC3CCCCC3)CC[C@H]2C)n1	4.5
CONC(=O)c1ccccc1Nc1cc(Nc2cc(C)nn2C(C)C)ncc1Cl	0
COc1cc2ncnc(Oc3cccc(NC(=O)Nc4cc(C(C)(C)C(F)(F)F)on4)c3)c2cc1OC	1.3
COc1ccc2[nH]cc(/C=C3\C(=O)Nc4ccc(NC(=O)CCN5CCCCC5)cc43)c2c1	4.8
C[C@@H](Oc1cc(-n2cnc3ccc(CN4CCN(C)CC4)cc32)sc1C(N)=O)c1ccccc1C(F)(F)F	13.7
O=C(NC[C@H](O)CN1CCc2ccccc2C1)c1cc(NC2COC2)ncn1	0
O=C1Cc2cc(C(=O)NC3C[C@H]4CC[C@@H](C3)N4S(=O)(=O)CC3CCN(CCCC(F)(F)F)CC3)c(Cl)cc2N1 (stereo partly drawn)	0
CCN(CC)CCCC(C)Nc1ccnc2cc(Cl)ccc12 (stereo not drawn) [Chloroquine]	6.3
Nc1ccn([C@@H]2O[C@H](CO)[C@@H](O)[C@@H]2O)c(=O)n1 [Cytarabine]	14
Cc1ccc(NC(=O)c2ccc(CN3CCN(C)CC3)cc2)cc1Nc1nccc(-c2cccnc2)n1 [Imatinib]	0.2
CC[C@H](CO)Nc1nc(NCc2ccccc2)c2ncn(C(C)C)c2n1 [Seliciclib]	1.1

system: CAOV3; assay: as above; conditions: exposure time: 72 h; concentration range: 5 concentrations over 10,000-fold range
Summary of the method: as §1

Structure (SMILES)	drug sensitivity score
CC(C)(C)c1cc(NC(=O)Nc2ccc(Oc3ccnc4[nH]c(=O)cnc34)cc2F)n(-c2ccccc2)n1	2.8
CCn1c(-c2nonc2N)nc2c(C#CC(C)(C)O)ncc(OC[C@H]3CCCNC3)c21	4.3
CCn1cc(-c2ccnc3[nH]c(-c4cccc(CN(C)C)c4)cc23)c(-c2ccc(NC(=O)N(C)C)cc2)n1	17
CN1CCN(C2CCC(n3cc(-c4ccc(Oc5ccccc5)cc4)c4c(N)ncnc43)CC2)CC1 (stereo not drawn)	11.4
CNC(=O)c1ccccc1Nc1nc(Nc2ccc3c(c2OC)CCC[C@H](N2CCN(CCO)CC2)C3)ncc1Cl	8.2
CNc1nc(-c2ccc3c(N)n[nH]c3c2)cc(N2C[C@@H](C(=O)NC3CCCCC3)CC[C@H]2C)n1	1.9
CONC(=O)c1ccccc1Nc1cc(Nc2cc(C)nn2C(C)C)ncc1Cl	0
COc1cc2ncnc(Oc3cccc(NC(=O)Nc4cc(C(C)(C)C(F)(F)F)on4)c3)c2cc1OC	0
COc1ccc2[nH]cc(/C=C3\C(=O)Nc4ccc(NC(=O)CCN5CCCCC5)cc43)c2c1	6.3
C[C@@H](Oc1cc(-n2cnc3ccc(CN4CCN(C)CC4)cc32)sc1C(N)=O)c1ccccc1C(F)(F)F	22.4
O=C(NC[C@H](O)CN1CCc2ccccc2C1)c1cc(NC2COC2)ncn1	0
O=C1Cc2cc(C(=O)NC3C[C@H]4CC[C@@H](C3)N4S(=O)(=O)CC3CCN(CCCC(F)(F)F)CC3)c(Cl)cc2N1 (stereo partly drawn)	0
CCN(CC)CCCC(C)Nc1ccnc2cc(Cl)ccc12 (stereo not drawn) [Chloroquine]	7.2
Nc1ccn([C@@H]2O[C@H](CO)[C@@H](O)[C@@H]2O)c(=O)n1 [Cytarabine]	14.9
Cc1ccc(NC(=O)c2ccc(CN3CCN(C)CC3)cc2)cc1Nc1nccc(-c2cccnc2)n1 [Imatinib]	0
CC[C@H](CO)Nc1nc(NCc2ccccc2)c2ncn(C(C)C)c2n1 [Seliciclib]	0.4

system: Ovsaho; assay: as above; conditions: exposure time: 72 h; concentration range: 5 concentrations over 10,000-fold range
Summary of the method: as §1

Structure (SMILES)	drug sensitivity score
CC(C)(C)c1cc(NC(=O)Nc2ccc(Oc3ccnc4[nH]c(=O)cnc34)cc2F)n(-c2ccccc2)n1	1.6
CCn1c(-c2nonc2N)nc2c(C#CC(C)(C)O)ncc(OC[C@H]3CCCNC3)c21	0.5
CCn1cc(-c2ccnc3[nH]c(-c4cccc(CN(C)C)c4)cc23)c(-c2ccc(NC(=O)N(C)C)cc2)n1	1.2
CN1CCN(C2CCC(n3cc(-c4ccc(Oc5ccccc5)cc4)c4c(N)ncnc43)CC2)CC1 (stereo not drawn)	15.6
CNC(=O)c1ccccc1Nc1nc(Nc2ccc3c(c2OC)CCC[C@H](N2CCN(CCO)CC2)C3)ncc1Cl	8.5
CNc1nc(-c2ccc3c(N)n[nH]c3c2)cc(N2C[C@@H](C(=O)NC3CCCCC3)CC[C@H]2C)n1	1.1
CONC(=O)c1ccccc1Nc1cc(Nc2cc(C)nn2C(C)C)ncc1Cl	3.1
COc1cc2ncnc(Oc3cccc(NC(=O)Nc4cc(C(C)(C)C(F)(F)F)on4)c3)c2cc1OC	0
COc1ccc2[nH]cc(/C=C3\C(=O)Nc4ccc(NC(=O)CCN5CCCCC5)cc43)c2c1	4.6
C[C@@H](Oc1cc(-n2cnc3ccc(CN4CCN(C)CC4)cc32)sc1C(N)=O)c1ccccc1C(F)(F)F	24.7
O=C(NC[C@H](O)CN1CCc2ccccc2C1)c1cc(NC2COC2)ncn1	0
O=C1Cc2cc(C(=O)NC3C[C@H]4CC[C@@H](C3)N4S(=O)(=O)CC3CCN(CCCC(F)(F)F)CC3)c(Cl)cc2N1 (stereo partly drawn)	0
CCN(CC)CCCC(C)Nc1ccnc2cc(Cl)ccc12 (stereo not drawn) [Chloroquine]	8.1
Nc1ccn([C@@H]2O[C@H](CO)[C@@H](O)[C@@H]2O)c(=O)n1 [Cytarabine]	2

Source: the supplement of paper PMC11616607
